The results in this text go back to ChEMBL document CHEMBL1201862, “PubChem BioAssay data set” (2004).

SMILES strings stand for the structures. Activity calls are given as the source filed them.

Test [1] concerns the target T1, Eukaryotic translation initiation factor 2-alpha kinase 3 (Homo sapiens, UniProt Q9NZJ5). Nature of the test: Dose response cell-based high-throughput screening assay to measure PERK inhibition. [Related pubchem assays: 1416 ]. Format: functional.
For test [2], the target named is T1, Eukaryotic translation initiation factor 2-alpha kinase 3. Nature of the test: Counterscreen assay for PERK inhibitors: Dose response cell-based high throughput screening assay to measure inhibition of PERK at 6 hours. [Related pubchem assays: 1522, 1416 ]. Format: functional. (A counterscreen serves to expose hits that act by an unwanted route or on another target.)

Test [3] can be described thus: luciferase reporter signal suppression in cells – H4 neuroglioma cells, luminescence, dose response (AID 1990). Format: functional, cell-based. (A reporter such as luciferase makes a cellular process visible.)
Test [4] can be described thus: luciferase reporter signal reduction – luminescence, H4-C neuroglioblastoma cells, dose response (AID 2458).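 Further: H4 neuroglioblastoma cells stably carrying a luciferase reporter gene fusion.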 It counts as functional, cell-based.
A further test can be described thus: cells. Format: functional, cell-based.
Test [5] can be described thus: Luminescence Cell-Based Dose Response HTS to Identify Inhibitors of 5'UTR Stem-Loop Driven Prion Protein mRNA Translation in H4 Neuroglioblastoma Cells. [Related pubchem assays: 1827 (Project Summary), 1813 (Primary HTS)]. Format: functional.
Test [6] is described as follows: alpha-synuclein stem-loop luciferase translation blockers – H4 neuroglioma cells, luminescence, confirmation (AID 1988). It counts as functional, cell-based.
Test [7] can be described thus: alpha-synuclein stem-loop translation blockers – luminescence, H4 neuroglioblastoma cells, dose confirmation, confirmation (AID 2454).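 Further: H4 neuroglioblastoma cells carrying an alpha-synuclein 5'UTR luciferase reporter; potency for inhibition of the luciferase signal.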 It counts as functional, cell-based.
The next test addresses Cytochrome P450 2D6 (Homo sapiens, UniProt P10635). Nature of the test: qHTS Assay for Inhibitors and Substrates of Cytochrome P450 2D6. [Related pubchem assays: 410 ]. Format: ADME. The following applies: read-out: Potency. A general note: Quantitative high-throughput screening tests each substance at several concentrations.
In test [8] the target is G2/mitotic-specific cyclin-B1 (Homo sapiens, UniProt P14635). The test can be described thus: Counterscreen assay for inhibitors of Wee1 degradation: dose response cell-based assay to identify inhibitors of cyclin B degradation. [Related pubchem assays: 1410, 1321 ]. Format: functional.
A further test addresses Wee1-like protein kinase (Homo sapiens, UniProt P30291). The test can be described thus: Dose Response Cell-based Assay for Inhibitors of Wee1 Degradation. [Related pubchem assays: 1410, 1321 ]. It counts as functional.
The test system of test [9] is Streptococcus sp. 'group A'. The test can be described thus: Streptococcus pyogenes SK(-)GAS viability under kanamycin – luminescence, BacTiterGlo, confirmation, counter-screen for streptokinase expression inhibitor project, dose response (AID 1900). Format: functional, organism-based.
The target in a further test is T2, Streptokinase A (Streptococcus pyogenes serotype M1, UniProt P10520).
T2 sequence (P10520 whole entry): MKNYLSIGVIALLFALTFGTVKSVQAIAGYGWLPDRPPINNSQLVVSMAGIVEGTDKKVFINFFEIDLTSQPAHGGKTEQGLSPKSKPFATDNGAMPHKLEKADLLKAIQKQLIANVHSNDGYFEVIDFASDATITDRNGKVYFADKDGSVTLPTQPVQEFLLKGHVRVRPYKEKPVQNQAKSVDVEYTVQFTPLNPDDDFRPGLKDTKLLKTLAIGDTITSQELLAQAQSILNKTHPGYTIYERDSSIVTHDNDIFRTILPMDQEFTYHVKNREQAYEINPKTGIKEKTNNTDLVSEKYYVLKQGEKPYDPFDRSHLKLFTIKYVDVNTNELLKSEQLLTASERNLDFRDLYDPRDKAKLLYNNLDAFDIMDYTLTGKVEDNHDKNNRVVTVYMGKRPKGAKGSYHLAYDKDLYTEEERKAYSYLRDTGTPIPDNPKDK
The test can be described thus: viability-normalized secreted streptokinase activity reduction – plasminogen activation absorbance, OD405, dose response (AID 1914).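 Further: secreted streptokinase activity via plasminogen activation per viability signal from cell pellet.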 Format: functional, Streptococcus pyogenes M1 GAS.

A short description of test [10]: antiviral protection against BTV-induced cell death – arbovirus, BSR cells, confirmation (AID 1250).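 Further: protection from viral cytopathic effect measured as cell viability by ATP luminescence.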 It counts as functional.
For another test, the system named is Streptococcus. Nature of the test: GAS UMAA2166 growth inhibition – luminescence, BacTiterGlo, counter-screen for streptokinase expression inhibitor project, dose response (AID 1915).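 Further: potency for reduction of bacterial viability or growth.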 Format: functional, organism-based.
The nature of test [11]: Luminescence Cell-Based Dose Retest to Confirm Inhibitors of Cancer Stem Cells. [Related pubchem assays (depositor defined):AID2717, AID2721]. Format: functional. The note with it: Homo sapiens.
Test [12] addresses Luciferin 4-monooxygenase (Photinus pyralis, UniProt P08659). Nature of the test: Counter Screen for Luciferase-based Assay Positives. [Related pubchem assays: 620, 618, 411 ].
Another test deals with HT-1080. The test can be described thus: HT1080 cell viability loss – fluorescence readout (AID 620). Format: functional, cell-based. The following applies: Homo sapiens.
In test [13] the target is Lysosomal acid glucosylceramidase (Homo sapiens, UniProt P04062). The test can be described thus: Dose response cell-based high throughput screening assay to identify enhancers of beta-glucosidase activity. [Related pubchem assays: 784 ]. Format: functional.
A further test addresses Large T antigen (Simian virus 40, UniProt P03070). Format: functional, Betapolyomavirus macacae.
The next test addresses NS3 (Hepatitis C virus, UniProt A3EZJ3). The test can be described thus: PubChem AID 2173. Details: species or system Hepacivirus hominis.
Test [14] addresses C-C chemokine receptor type 6 (Homo sapiens, UniProt P51684). The test can be described thus: antagonism of CCR6 beta-arrestin recruitment – cell-based, luminescent beta-arrestin readout, dose response (AID 504728). It counts as functional.
The target of a further test is Beta-galactosidase (Escherichia coli, UniProt Q8VNN2). Nature of the test: detection-enzyme interference by beta-gal modulators – biochemical, E. coli enzyme, set 3, artefact control for CCR6 antagonist project, dose response (AID 504712). Format: functional.
Test [15] has as its target Heat shock protein HSP 90-alpha (Homo sapiens, UniProt P07900). Format: functional, organism-based.
For test [16], the target named is T3, High affinity choline transporter 1 (Homo sapiens, UniProt Q9GZV3).
T3 sequence (Q9GZV3 whole entry): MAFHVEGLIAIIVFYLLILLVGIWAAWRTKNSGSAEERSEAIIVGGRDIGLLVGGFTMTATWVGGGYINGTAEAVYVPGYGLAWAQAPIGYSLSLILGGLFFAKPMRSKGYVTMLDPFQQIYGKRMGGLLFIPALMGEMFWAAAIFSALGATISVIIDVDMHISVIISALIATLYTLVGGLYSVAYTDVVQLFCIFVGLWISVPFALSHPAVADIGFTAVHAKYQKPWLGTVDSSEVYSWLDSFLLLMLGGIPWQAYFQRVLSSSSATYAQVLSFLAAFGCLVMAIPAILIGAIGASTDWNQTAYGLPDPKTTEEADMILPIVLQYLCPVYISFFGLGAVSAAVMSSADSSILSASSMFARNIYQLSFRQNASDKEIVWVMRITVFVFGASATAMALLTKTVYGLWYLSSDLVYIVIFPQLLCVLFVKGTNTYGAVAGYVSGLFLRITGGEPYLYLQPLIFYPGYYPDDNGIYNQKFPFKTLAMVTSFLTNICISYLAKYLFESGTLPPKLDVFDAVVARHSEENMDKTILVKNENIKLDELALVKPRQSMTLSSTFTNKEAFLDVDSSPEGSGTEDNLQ
Nature of the test: human choline transporter blockers, potency – cell-based, 5-point CRC, membrane potential dye, dose response (AID 504840). Format: functional.

The target of a further test is Aspartyl aminopeptidase (Plasmodium falciparum 3D7, UniProt Q8I2J3).
In the next test the target is Procathepsin L (Homo sapiens, UniProt P07711).
Test [17] addresses Dual specificity tyrosine-phosphorylation-regulated kinase 1A (Rattus norvegicus, UniProt Q63470). It counts as biochemical, Homo sapiens.
Test [18] concerns the target T4, Rac GTPase-activating protein 1 (Homo sapiens, UniProt Q9H0H5).
T4 sequence (Q9H0H5 whole entry): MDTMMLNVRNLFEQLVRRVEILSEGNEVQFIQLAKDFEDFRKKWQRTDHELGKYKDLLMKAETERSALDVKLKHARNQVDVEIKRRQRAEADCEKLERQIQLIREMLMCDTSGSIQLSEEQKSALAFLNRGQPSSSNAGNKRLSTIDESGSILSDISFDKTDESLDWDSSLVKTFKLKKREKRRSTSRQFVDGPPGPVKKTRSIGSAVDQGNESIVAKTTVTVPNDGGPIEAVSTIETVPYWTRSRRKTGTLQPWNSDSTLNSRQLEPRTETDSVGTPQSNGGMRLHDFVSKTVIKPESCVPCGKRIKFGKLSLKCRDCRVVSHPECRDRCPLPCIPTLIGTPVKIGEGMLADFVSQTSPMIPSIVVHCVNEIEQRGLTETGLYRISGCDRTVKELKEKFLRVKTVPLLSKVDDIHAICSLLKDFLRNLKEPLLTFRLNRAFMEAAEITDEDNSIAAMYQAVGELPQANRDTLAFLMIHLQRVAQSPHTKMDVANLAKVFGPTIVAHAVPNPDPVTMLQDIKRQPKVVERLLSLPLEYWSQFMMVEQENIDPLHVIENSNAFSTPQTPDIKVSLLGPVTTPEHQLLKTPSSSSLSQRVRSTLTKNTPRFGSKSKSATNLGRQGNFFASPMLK
The test can be described thus: blockers of MgcRacGAP-driven Rac1 GTP hydrolysis – biochemical, ADP Hunter fluorescence, primary and confirmatory, confirmation (AID 624330). Format: functional.

The target of test [19] is Mothers against decapentaplegic homolog 3 (Homo sapiens, UniProt P84022). The test can be described thus: blockers of Smad3 complex formation in lysate – cell lysate, secondary confirmation, chemiluminescent ELISA, HEK293 lysate, dose response (AID 1058). Format: functional.

T1 sequence (Q9NZJ5 whole entry): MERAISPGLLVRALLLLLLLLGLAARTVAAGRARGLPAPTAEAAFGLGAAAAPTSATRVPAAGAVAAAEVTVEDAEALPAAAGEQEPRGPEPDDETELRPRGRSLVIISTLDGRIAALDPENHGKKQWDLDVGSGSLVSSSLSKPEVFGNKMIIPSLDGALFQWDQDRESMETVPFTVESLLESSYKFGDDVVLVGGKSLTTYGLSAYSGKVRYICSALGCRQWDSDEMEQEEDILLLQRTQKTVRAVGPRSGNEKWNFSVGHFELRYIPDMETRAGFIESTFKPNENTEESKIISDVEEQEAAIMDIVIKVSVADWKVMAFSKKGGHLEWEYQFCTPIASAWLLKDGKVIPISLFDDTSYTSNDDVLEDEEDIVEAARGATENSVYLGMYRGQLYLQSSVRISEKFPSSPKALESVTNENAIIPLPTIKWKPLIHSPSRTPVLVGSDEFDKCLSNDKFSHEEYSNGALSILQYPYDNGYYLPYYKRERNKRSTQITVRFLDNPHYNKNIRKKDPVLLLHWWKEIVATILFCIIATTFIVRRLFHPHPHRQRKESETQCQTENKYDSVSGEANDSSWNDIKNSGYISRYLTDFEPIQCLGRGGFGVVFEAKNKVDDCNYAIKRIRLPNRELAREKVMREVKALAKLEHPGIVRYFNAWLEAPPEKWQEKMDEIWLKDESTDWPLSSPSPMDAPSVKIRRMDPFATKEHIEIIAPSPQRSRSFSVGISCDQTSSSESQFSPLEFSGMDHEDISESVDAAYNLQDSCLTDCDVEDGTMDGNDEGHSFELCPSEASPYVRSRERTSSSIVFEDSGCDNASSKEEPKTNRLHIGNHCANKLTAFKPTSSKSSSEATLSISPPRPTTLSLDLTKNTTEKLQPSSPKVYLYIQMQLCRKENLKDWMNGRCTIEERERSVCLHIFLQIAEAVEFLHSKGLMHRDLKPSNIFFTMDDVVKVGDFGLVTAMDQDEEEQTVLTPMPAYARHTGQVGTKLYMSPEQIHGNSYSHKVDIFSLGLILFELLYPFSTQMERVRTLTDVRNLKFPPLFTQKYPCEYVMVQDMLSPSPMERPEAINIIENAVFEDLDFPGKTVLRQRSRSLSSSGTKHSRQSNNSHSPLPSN
Lysosomal acid glucosylceramidase, sequence (P04062 whole entry): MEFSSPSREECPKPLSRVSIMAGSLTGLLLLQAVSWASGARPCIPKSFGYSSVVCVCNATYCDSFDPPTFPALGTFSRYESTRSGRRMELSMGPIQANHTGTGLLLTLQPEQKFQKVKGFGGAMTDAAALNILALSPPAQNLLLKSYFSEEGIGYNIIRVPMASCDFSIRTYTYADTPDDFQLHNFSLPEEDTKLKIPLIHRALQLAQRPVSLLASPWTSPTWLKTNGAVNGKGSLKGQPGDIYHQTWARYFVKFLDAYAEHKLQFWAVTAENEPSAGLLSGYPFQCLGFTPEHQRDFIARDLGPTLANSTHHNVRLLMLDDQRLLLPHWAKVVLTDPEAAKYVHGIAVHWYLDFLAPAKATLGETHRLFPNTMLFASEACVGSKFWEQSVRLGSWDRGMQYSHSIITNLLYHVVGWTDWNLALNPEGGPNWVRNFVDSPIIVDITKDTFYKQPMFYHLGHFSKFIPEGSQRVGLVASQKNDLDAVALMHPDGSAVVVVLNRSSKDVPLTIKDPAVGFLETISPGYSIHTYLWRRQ
Large T antigen, sequence (P03070 whole entry): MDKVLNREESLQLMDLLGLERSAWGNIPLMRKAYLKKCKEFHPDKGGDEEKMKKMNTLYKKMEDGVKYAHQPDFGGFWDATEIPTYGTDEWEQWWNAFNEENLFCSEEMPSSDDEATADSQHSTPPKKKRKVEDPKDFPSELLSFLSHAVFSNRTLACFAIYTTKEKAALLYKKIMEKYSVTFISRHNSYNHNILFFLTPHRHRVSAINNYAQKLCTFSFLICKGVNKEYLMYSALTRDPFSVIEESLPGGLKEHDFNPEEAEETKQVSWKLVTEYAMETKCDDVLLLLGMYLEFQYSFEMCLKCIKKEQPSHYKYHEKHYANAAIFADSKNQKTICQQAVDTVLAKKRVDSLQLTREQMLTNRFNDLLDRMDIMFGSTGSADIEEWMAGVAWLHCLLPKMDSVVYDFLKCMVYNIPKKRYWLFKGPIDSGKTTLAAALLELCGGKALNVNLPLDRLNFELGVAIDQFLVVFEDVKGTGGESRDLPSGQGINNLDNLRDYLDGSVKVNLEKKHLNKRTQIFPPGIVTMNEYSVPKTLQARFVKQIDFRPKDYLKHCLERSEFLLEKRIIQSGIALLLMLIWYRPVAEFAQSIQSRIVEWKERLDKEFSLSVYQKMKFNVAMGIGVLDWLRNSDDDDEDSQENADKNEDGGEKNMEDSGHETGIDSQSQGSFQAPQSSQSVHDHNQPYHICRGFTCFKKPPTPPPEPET
NS3, sequence (A3EZJ3 whole entry): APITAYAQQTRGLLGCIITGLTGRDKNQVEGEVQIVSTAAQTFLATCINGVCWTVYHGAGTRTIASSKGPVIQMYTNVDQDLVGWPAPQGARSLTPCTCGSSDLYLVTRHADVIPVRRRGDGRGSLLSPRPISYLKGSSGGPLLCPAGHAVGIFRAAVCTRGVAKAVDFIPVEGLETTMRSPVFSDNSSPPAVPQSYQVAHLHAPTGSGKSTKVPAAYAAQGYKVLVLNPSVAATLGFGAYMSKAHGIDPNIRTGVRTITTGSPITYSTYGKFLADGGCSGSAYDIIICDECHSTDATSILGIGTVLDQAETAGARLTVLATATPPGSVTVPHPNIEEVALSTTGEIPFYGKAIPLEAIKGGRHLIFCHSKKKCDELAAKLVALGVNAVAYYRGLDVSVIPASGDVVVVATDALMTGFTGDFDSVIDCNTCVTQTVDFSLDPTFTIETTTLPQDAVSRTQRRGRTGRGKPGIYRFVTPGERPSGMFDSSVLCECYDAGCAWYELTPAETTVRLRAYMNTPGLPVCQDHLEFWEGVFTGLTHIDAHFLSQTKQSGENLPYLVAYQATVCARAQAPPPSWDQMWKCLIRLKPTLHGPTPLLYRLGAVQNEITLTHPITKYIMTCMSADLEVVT
G2/mitotic-specific cyclin-B1, sequence (P14635 whole entry): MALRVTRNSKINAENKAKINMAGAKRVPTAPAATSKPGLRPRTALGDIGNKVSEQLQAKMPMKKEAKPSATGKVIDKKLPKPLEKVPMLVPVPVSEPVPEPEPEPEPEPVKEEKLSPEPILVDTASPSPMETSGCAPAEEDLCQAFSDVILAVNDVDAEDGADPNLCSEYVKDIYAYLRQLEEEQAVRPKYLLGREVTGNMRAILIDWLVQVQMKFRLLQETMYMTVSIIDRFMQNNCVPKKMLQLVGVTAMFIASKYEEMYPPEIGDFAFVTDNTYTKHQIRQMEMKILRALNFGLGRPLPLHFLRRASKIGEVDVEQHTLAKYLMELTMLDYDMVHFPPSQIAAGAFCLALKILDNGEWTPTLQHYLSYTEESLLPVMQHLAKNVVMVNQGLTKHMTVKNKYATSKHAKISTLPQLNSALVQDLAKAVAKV
C-C chemokine receptor type 6, sequence (P51684 whole entry): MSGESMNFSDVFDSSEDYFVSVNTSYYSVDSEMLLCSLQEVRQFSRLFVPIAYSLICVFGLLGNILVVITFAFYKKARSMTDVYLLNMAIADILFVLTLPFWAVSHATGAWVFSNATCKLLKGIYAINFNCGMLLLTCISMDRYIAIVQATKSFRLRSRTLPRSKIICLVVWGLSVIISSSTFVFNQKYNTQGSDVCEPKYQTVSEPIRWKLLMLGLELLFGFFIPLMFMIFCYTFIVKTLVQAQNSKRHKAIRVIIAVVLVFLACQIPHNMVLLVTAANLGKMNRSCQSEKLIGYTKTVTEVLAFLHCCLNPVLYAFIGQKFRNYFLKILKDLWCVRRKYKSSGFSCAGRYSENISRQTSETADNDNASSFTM
Beta-galactosidase, sequence (Q8VNN2 whole entry): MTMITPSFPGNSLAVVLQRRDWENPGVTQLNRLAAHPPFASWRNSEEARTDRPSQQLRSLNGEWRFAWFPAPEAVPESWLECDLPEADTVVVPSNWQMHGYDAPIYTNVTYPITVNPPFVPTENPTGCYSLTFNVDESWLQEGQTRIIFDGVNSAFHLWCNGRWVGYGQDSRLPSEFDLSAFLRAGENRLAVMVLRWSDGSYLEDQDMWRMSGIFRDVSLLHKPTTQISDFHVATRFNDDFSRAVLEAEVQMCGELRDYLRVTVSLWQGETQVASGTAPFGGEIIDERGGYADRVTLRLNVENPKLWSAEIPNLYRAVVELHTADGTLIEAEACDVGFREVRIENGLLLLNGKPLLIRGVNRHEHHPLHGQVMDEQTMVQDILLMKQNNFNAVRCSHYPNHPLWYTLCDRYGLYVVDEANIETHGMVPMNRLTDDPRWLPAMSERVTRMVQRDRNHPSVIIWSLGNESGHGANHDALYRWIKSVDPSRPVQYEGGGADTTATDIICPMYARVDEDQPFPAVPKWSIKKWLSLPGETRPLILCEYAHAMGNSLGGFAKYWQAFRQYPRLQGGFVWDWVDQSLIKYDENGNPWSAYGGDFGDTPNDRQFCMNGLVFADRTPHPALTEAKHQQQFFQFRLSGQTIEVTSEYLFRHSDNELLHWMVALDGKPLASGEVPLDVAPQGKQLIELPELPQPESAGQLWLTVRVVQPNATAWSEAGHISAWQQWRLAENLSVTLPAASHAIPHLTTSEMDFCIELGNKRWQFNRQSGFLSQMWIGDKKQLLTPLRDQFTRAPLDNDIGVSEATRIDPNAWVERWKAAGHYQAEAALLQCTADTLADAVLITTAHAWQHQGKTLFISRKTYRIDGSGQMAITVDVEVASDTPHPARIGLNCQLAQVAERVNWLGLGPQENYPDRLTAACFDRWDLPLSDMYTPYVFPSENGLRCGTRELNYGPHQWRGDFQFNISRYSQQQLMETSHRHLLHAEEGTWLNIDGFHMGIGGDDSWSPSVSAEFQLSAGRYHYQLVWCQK

Turning to `Cc1c2cnn(-c3ccccc3)c(=O)c2c(C)n1CCCC(=O)NCCN1CCN(C)CC1`, the EC50 in test [1] and in test [2] was > 55.7 µM (not active) throughout.

For the molecule `CC(=O)O[C@@H]1/C=C/[C@](C)(O)C[C@@H](C)C/C=C/[C@H]2[C@H](O)C(C)=C(C)[C@H]3[C@H](Cc4ccccc4)NC(=O)[C@@]123`, the EC50 is 0.208 µM (active) in test [3]; 0.577 µM (active) in test [4]; 0.895 µM (active) in the test “cells”; 28.2 µM (active) in test [5]; < 0.1 µM (active) in test [6]; 0.397 µM (active) in test [7].

Regarding `COc1cccc(-c2oc3ccccc3c(=O)c2O)c1`, the AC50 at Cytochrome P450 2D6 is 31.6 µM (inconclusive).

Take `CCN(CC)S(=O)(=O)c1ccc(C(=O)NCCc2ccccn2)cc1`: the concentration giving a half-maximal response (EC50) (in [8]; at Wee1-like protein kinase) was > 49.7 µM (not active) throughout.

As to `Cc1ccc(-c2csc3ncnc(NS(=O)(=O)c4ccc(Cl)cc4)c23)cc1`, the EC50 is 4.44 µM (active) in [9], 16.2 µM (active) at Streptokinase A and 66.7 µM (active) with Streptococcus. The IC50 in test [10] was 35.5 µM (active). Moreover, in test [11], the AC50 was 9.42 µM (active).

Take `Cc1ccc(-c2nc3cc(N)ccc3o2)cc1`: the 50% effective concentration (EC50) is 4.68 µM (active) in test [12] and > 50 µM (not active) in the test with HT-1080.

Turning to `COC(=O)c1cn(NC(=O)c2ccncc2)c(=O)c2ccccc12`, in [13], the half-maximal effective concentration (EC50) was > 50 µM (not active).

For the molecule `O=[N+]([O-])c1cc(Cc2ccccc2)cc(/C=N/c2ccc(N3CCOCC3)cc2)c1O`, the half-maximal inhibitory concentration (IC50) was 2.64 µM (active) at Large T antigen; 7.65 µM (active) on NS3; > 66.6 µM (inactive) in test [14]; > 66.6 µM (inactive) on Beta-galactosidase; 9.12 µM (active) in test [16]. Also, the AC50 in [15] is 4.32 µM (active).

Regarding `Oc1ccc(-c2csc(-c3cccnc3)n2)cc1O`, the figures for the IC50 (at Aspartyl aminopeptidase; at Procathepsin L; in test [18]) were 1.81 µM (active), > 59.6 µM (not active) and 9.47 µM (active), respectively. For the same molecule, in [17], the AC50 is 7.37 µM (active).

For the molecule `COc1cc(C(c2cc3c(cc2O)OCO3)N2CCOCC2)ccc1O` (stereo not given), the IC50 in test [19] is recorded as 10.1 µM (not active).

As a reminder, the EC50 is the concentration that produces a half-maximal response. The term IC50 denotes the midpoint of a concentration-inhibition curve.
